Results on 1 molecule are retold here after patent US20240293322A1, “SUSTAINED RELEASE FORMULATIONS COMPRISING A SELECTIVE ANDROGEN RECEPTOR MODULATOR” (University of Iowa Research Foundation, priority 2021, published 2024).

“Also recorded” adds a separate entry of the source.

Data set [1] deals with acidic saline muscle pain model. As to the kind of experiment: Acidic saline muscle pain (fibromyalgia) model, muscle withdrawal threshold (MWT). It is filed as in vivo, C57BL/6J mice. The method, then: A SARM was tested its ability to alleviate pain using a model of fibromyalgia (Sluka et al., 2001). The model is induced by repeated injections of acidic saline into the gastrocnemius muscle, 5 days apart. After the second injection animals develop widespread pain behavior, termed hyperalgesia, that resolves in 4 weeks. Pain-behaviors are tested by using a device to apply deep pressure to the gastrocnemius muscle; withdrawal from this pressure is considered a pain-response.
Pain was induced using the model after which daily administration of SARMs or a vehicle was performed for 4 weeks. Withdrawal thresholds of the muscle were tested before and after induction of the model, and weekly after administration of the SARM. A decrease in withdrawal threshold is interpreted as increased pain sensitivity or hyperalgesia. […] Daily administration is clinically cumbersome and results in lower adherence to the treatment and so a long acting SARM containing microparticle formulation was developed to treat pain, e.g., chronic pain.
(§1) A decrease in MWT was interpreted as muscle hyperalgesia.
The SARM, (s)-3-(4-cyanophenoxy)-n-(4-cyano-3-(trifluoromethyl)phenyl)-2-hydroxy-2-methylpropanamide (Achemblock, San Francisco, CA, USA), was used in the following experiments. To test for the analgesic effects of SARM the acidic saline muscle pain model was induced and the presence of hyperalgesia 24 hours after model induction was confirmed. Animals then received daily subcutaneous injections of either SARM or vehicle for the next 4 weeks. For SARM administration, the drug was dissolved in dimethyl sulfoxide (DMSO; Fisher Scientific, Waltham, MA, USA) at a concentration of 50 mg/ml and then diluted in polyethylene glycol 300 (PEG300; Med Lab Supply, Pompano Beach, FL, USA) until a final solution of 10 mg/ml in 80:20 PEG300:DMSO was achieved. Animals were anesthetized with 2-4% isoflurane and SARM (25 mg/kg) or vehicle were delivered subcutaneously. This dose was chosen based on prior literature which found greatest effect at this dose (Gao et al., 2004). […]

For data set [2] the test system is unchanged. Description: Acidic saline muscle pain model, paw allodynia by von Frey monofilament. Type of data set: in vivo, C57BL/6J mice. As to conditions: daily SARM 25 mg/kg s.c. for 4 weeks vs vehicle; ipsilateral and contralateral paw.
Description: as §1

The next data set concerns C57BL/6J mice. Description: Rewarding behavior, condition place preference testing. As to conditions: SARM 25 mg/kg s.c. daily for 5 days. It is filed as in vivo. The source says:
To test if SARM produced rewarding behavior condition place preference testing was employed using a 9-day testing paradigm. The boxes used for testing were 27.5″ by 8.25″ divided into two 10.75″ by 8.25″ pairing chambers and a 4.75″ by 8.25″ middle chamber. The pairing chambers had different colored walls (solid black vs black and white stripe) and floor textures (smooth vs ridged). The middle chamber had solid black walls with smooth floors and was illuminated. Acclimation and baseline testing occurred over the first 3 days. Animals were placed in boxes with access to all 3 chambers for 15 minutes. On the third day, time spent in each box was recorded. Drug pairing then occurred for 5 days on days 4 through 8. Each day, animals were injected subcutaneously with SARM vehicle (80:20; PEG300:DMSO) and placed in a pairing chamber for 60 minutes. Animals were then returned to their home cages. Four hours later animals were subcutaneously injected with SARM (25 mg/kg) and were confined to the opposite pairing chamber for 60 minutes. Chamber pairings were counterbalanced amongst animals. Following pairing, on day 9, animals were placed in boxes with access to all 3 chambers for 15 minutes with time spent in each box recorded. In order to determine if rewarding behavior was present, the amount of time spent in SARM paired chambers was compared between baseline and post drug pairing.

Turning to `C[C@](O)(COc1ccc(C#N)cc1)C(=O)Nc1ccc(C#N)c(C(F)(F)F)c1` [SARM, (s)-3-(4-cyanophenoxy)-n-(4-cyano-3-(trifluoromethyl)phenyl)-2-hydroxy-2-methylpropanamide], the “effect on hyperalgesia in male versus female mice” value in data set [1] (Example 1) was “worked equally in male and female mice”. Besides, the “withdrawal thresholds of the gastrocnemius muscle (pain thresholds, muscle hyperalgesia)” value in data set [1] (Example 1: daily administration of free SARM for 4 weeks vs vehicle, left and right muscle) is reported as “higher pain thresholds than those receiving vehicle treatment; also recorded: reversed muscle hyperalgesia”. Further, in data set [1] (daily SARM 25 mg/kg s.c. for 4 weeks vs vehicle, ipsilateral and contralateral limb), the “muscle hyperalgesia measured via muscle withdrawal threshold (MWT)” value is on record as “alleviated decreased MWT bilaterally in both sexes; also recorded: significant reversal in muscle hyperalgesia; also recorded: reversed muscle hyperalgesia”. Besides, the “paw allodynia / paw hypersensitivity (von Frey number of responses)” value in data set [2] is “no effect on paw allodynia; also recorded: unable to alleviate paw hypersensitivity”. For the same molecule, in the data set on C57BL/6J mice (baseline vs post drug pairing), the “preference for SARM paired chamber (reward like behavior)” value is given as “did not show an increased preference for the SARM paired chamber; also recorded: no preference for the SARM paired chamber”. Also, the “time spent in SARM paired chamber, post drug pairing” value in the data set on C57BL/6J mice (baseline 380.3±51.0 sec, mean±SEM) stood at 385.7 ± 37.1 s.
